{"source": "patent US20100267561A1", "about": "“HERBICIDAL PYRIDAZINONE DERIVATIVES” (priority 2007, published 2010)", "test_in_all_cases": "Test B pre-/postemergence plant response", "type_in_all_cases": "in vivo", "key": {"[1]": {"tested_on": "eastern black (E.B.) nightshade (Solanum ptycanthum)", "conditions": "Preemergence; for Nightshade, E. B. plant response rating: scale 0 to 100", "method_in_brief": "(§1)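 Preemergence and postemergence (plants 2-18 cm, 1- to 4-leaf stage) applications used test chemicals in a non-phytotoxic solvent with surfactant. Plants were held in a greenhouse 13 to 15 days, then rated visually against controls on a 0-100 scale (0 no effect, 100 complete control).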"}, "[2]": {"tested_on": "common ragweed (Ambrosia elation)", "method_in_brief": "as §1"}, "[3]": {"tested_on": "downy bromegrass (Bromus tectorum)", "conditions": "for Bromegrass, Downy plant response rating: 8 g ai/ha", "method_in_brief": "as §1"}, "[4]": {"tested_on": "cocklebur (Xanthium strumarium)", "conditions": "for Cocklebur plant response rating: 8 g ai/ha", "method_in_brief": "as §1"}, "[5]": {"tested_on": "wheat (Triticum aestivum)", "method_in_brief": "as §1"}, "[6]": {"tested_on": "woolly cupgrass (Eriochloa villosa)", "method_in_brief": "as §1"}, "[7]": {"tested_on": "blackgrass (Alopecurus myosuroides)", "conditions": "for Blackgrass plant response rating: 8 g ai/ha", "method_in_brief": "as §1"}, "[8]": {"tested_on": "green foxtail (Setaria viridis)", "method_in_brief": "as §1"}, "[9]": {"tested_on": "yellow nutsedge (Cyperus esculentus)", "method_in_brief": "as §1"}, "corn (Zea mays)": {"tested_on": "corn (Zea mays)", "method_in_brief": "as §1"}, "wild oat (Avena fatua)": {"tested_on": "wild oat (Avena fatua)", "method_in_brief": "as §1"}, "[10]": {"tested_on": "common (oilseed) sunflower (Helianthus annuus)", "conditions": "Preemergence; for Sunflower plant response rating: scale 0 to 100", "method_in_brief": "as §1"}, "[11]": {"tested_on": "Russian thistle (Salsola iberica)", "conditions": "Preemergence; for Russian Thistle plant response rating: scale 0 to 100", "method_in_brief": "as §1"}, "[12]": {"tested_on": "surinam grass (Brachiaria decumbens)", "method_in_brief": "as §1"}, "[13]": {"conditions": "31 g ai/ha, scale 0 to 100 (0 no effect, 100 complete control)"}, "[14]": {"conditions": "62 g ai/ha, 0 to 100 scale, 0 no effect, 100 complete control"}, "[15]": {"conditions": "8 g ai/ha, postemergence, 0-100 scale"}, "[16]": {"conditions": "16 g ai/ha, postemergence, 0-100 scale"}, "[17]": {"conditions": "Postemergence, 31 g ai/ha, scale 0 to 100"}, "[18]": {"conditions": "Postemergence, 62 g ai/ha, scale 0 to 100, 0 no effect, 100 complete control"}, "[19]": {"conditions": "Preemergence, 62 g ai/ha, 0 to 100 scale, 0 no effect, 100 complete control"}, "[20]": {"conditions": "Preemergence, 8 g ai/ha, scale 0 to 100"}, "[21]": {"conditions": "Preemergence, 16 g ai/ha, scale 0 to 100"}, "[22]": {"conditions": "Postemergence, 16 g ai/ha, scale 0 to 100"}, "[23]": {"conditions": "Preemergence, 16 g ai/ha, scale 0 to 100 (0 no effect, 100 complete control)"}, "[24]": {"conditions": "Preemergence, 31 g ai/ha, scale 0 to 100 (0 no effect, 100 complete control)"}}}
{"compound": "CCc1cc(-c2ccc(C(F)(F)F)cc2)nn1-c1c(O)c(OC)nn(C)c1=O", "note": "[Compound 66]", "values": [{"measurement": "Plant response rating, Nightshade, E. B.", "setting": "[1]; [13]", "result": 0}, {"measurement": "Plant response rating, Nightshade, E. B.", "setting": "[1]; [14]", "result": 0}, {"measurement": "Nightshade, E. B. plant response rating", "setting": "[1]; 8 g ai/ha", "result": 0}, {"measurement": "Nightshade, E. B. plant response rating", "setting": "[1]; 16 g ai/ha", "result": 0}, {"measurement": "Ragweed plant response rating", "setting": "[2]; [15]", "result": 0}, {"measurement": "Ragweed plant response rating", "setting": "[2]; [16]", "result": 0}, {"measurement": "Plant response rating, Ragweed", "setting": "[2]; [17]", "result": 0}, {"measurement": "Plant response rating, Ragweed", "setting": "[2]; [18]", "result": 0}, {"measurement": "Plant response rating, Ragweed", "setting": "[2]; [19]", "result": 0}, {"measurement": "Ragweed plant response rating", "setting": "[2]; [20]", "result": 0}, {"measurement": "Ragweed plant response rating", "setting": "[2]; [21]", "result": 0}, {"measurement": "Bromegrass, Downy plant response rating", "setting": "[3]; postemergence, 0-100 scale", "result": 80}, {"measurement": "Plant response rating, Bromegrass, Downy", "setting": "[3]; [22]", "result": 95}, {"measurement": "Plant response rating, Bromegrass, Downy", "setting": "[3]; [17]", "result": 98}, {"measurement": "Plant response rating, Bromegrass, Downy", "setting": "[3]; [18]", "result": 98}, {"measurement": "Plant response rating, Bromegrass, Downy", "setting": "[3]; [23]", "result": 85}, {"measurement": "Plant response rating, Bromegrass, Downy", "setting": "[3]; [24]", "result": 100}, {"measurement": "Plant response rating, Bromegrass, Downy", "setting": "[3]; [19]", "result": 100}, {"measurement": "Bromegrass, Downy plant response rating", "setting": "[3]; Preemergence, scale 0 to 100", "result": 85}, {"measurement": "Cocklebur plant response rating", "setting": "[4]; postemergence, 0-100 scale", "result": 0}, {"measurement": "Plant response rating, Cocklebur", "setting": "[4]; [22]", "result": 0}, {"measurement": "Plant response rating, Cocklebur", "setting": "[4]; [17]", "result": 0}, {"measurement": "Plant response rating, Cocklebur", "setting": "[4]; [18]", "result": 0}, {"measurement": "Plant response rating, Cocklebur", "setting": "[4]; [23]", "result": 0}, {"measurement": "Plant response rating, Cocklebur", "setting": "[4]; [24]", "result": 0}, {"measurement": "Plant response rating, Cocklebur", "setting": "[4]; [19]", "result": 0}, {"measurement": "Cocklebur plant response rating", "setting": "[4]; Preemergence, scale 0 to 100", "result": 0}, {"measurement": "Wheat plant response rating", "setting": "[5]; [15]", "result": 95}, {"measurement": "Wheat plant response rating", "setting": "[5]; [16]", "result": 100}, {"measurement": "Plant response rating, Wheat", "setting": "[5]; [17]", "result": 100}, {"measurement": "Plant response rating, Wheat", "setting": "[5]; [18]", "result": 100}, {"measurement": "Plant response rating, Wheat", "setting": "[5]; [24]", "result": 95}, {"measurement": "Plant response rating, Wheat", "setting": "[5]; [19]", "result": 95}, {"measurement": "Wheat plant response rating", "setting": "[5]; [21]", "result": 90}, {"measurement": "Cupgrass, Woolly plant response rating", "setting": "[6]; [15]", "result": 90}, {"measurement": "Plant response rating, Cupgrass, Woolly", "setting": "[6]; [22]", "result": 95}, {"measurement": "Plant response rating, Cupgrass, Woolly", "setting": "[6]; [17]", "result": 100}, {"measurement": "Plant response rating, Cupgrass, Woolly", "setting": "[6]; [18]", "result": 100}, {"measurement": "Plant response rating, Cupgrass, Woolly", "setting": "[6]; [24]", "result": 90}, {"measurement": "Plant response rating, Cupgrass, Woolly", "setting": "[6]; [19]", "result": 98}, {"measurement": "Cupgrass, Woolly plant response rating", "setting": "[6]; [20]", "result": 0}, {"measurement": "Cupgrass, Woolly plant response rating", "setting": "[6]; [21]", "result": 80}, {"measurement": "Blackgrass plant response rating", "setting": "[7]; postemergence, 0-100 scale", "result": 90}, {"measurement": "Plant response rating, Blackgrass", "setting": "[7]; [22]", "result": 100}, {"measurement": "Plant response rating, Blackgrass", "setting": "[7]; [17]", "result": 100}, {"measurement": "Plant response rating, Blackgrass", "setting": "[7]; [18]", "result": 100}, {"measurement": "Plant response rating, Blackgrass", "setting": "[7]; [23]", "result": 100}, {"measurement": "Plant response rating, Blackgrass", "setting": "[7]; [24]", "result": 100}, {"measurement": "Plant response rating, Blackgrass", "setting": "[7]; [19]", "result": 100}, {"measurement": "Blackgrass plant response rating", "setting": "[7]; Preemergence, scale 0 to 100", "result": 90}, {"measurement": "Foxtail, Green plant response rating", "setting": "[8]; [15]", "result": 80}, {"measurement": "Plant response rating, Foxtail, Green", "setting": "[8]; [22]", "result": 100}, {"measurement": "Plant response rating, Foxtail, Green", "setting": "[8]; [17]", "result": 100}, {"measurement": "Plant response rating, Foxtail, Green", "setting": "[8]; [18]", "result": 100}, {"measurement": "Plant response rating, Foxtail, Green", "setting": "[8]; [24]", "result": 100}, {"measurement": "Plant response rating, Foxtail, Green", "setting": "[8]; [19]", "result": 100}, {"measurement": "Foxtail, Green plant response rating", "setting": "[8]; [20]", "result": 98}, {"measurement": "Foxtail, Green plant response rating", "setting": "[8]; [21]", "result": 100}, {"measurement": "Nutsedge, Yellow plant response rating", "setting": "[9]; [15]", "result": 0}, {"measurement": "Nutsedge, Yellow plant response rating", "setting": "[9]; [16]", "result": 0}, {"measurement": "Plant response rating, Nutsedge, Yellow", "setting": "[9]; [17]", "result": 0}, {"measurement": "Plant response rating, Nutsedge, Yellow", "setting": "[9]; [18]", "result": 0}, {"measurement": "Plant response rating, Nutsedge, Yellow", "setting": "[9]; [24]", "result": 0}, {"measurement": "Plant response rating, Nutsedge, Yellow", "setting": "[9]; [19]", "result": 100}, {"measurement": "Nutsedge, Yellow plant response rating", "setting": "[9]; [20]", "result": 0}, {"measurement": "Nutsedge, Yellow plant response rating", "setting": "[9]; [21]", "result": 0}, {"measurement": "Corn plant response rating", "setting": "corn (Zea mays); [15]", "result": 65}, {"measurement": "Plant response rating, Corn", "setting": "corn (Zea mays); [22]", "result": 75}, {"measurement": "Plant response rating, Corn", "setting": "corn (Zea mays); [17]", "result": 90}, {"measurement": "Plant response rating, Corn", "setting": "corn (Zea mays); [18]", "result": 100}, {"measurement": "Plant response rating, Corn", "setting": "corn (Zea mays); [24]", "result": 98}, {"measurement": "Plant response rating, Corn", "setting": "corn (Zea mays); [19]", "result": 100}, {"measurement": "Corn plant response rating", "setting": "corn (Zea mays); [20]", "result": 0}, {"measurement": "Corn plant response rating", "setting": "corn (Zea mays); [21]", "result": 70}, {"measurement": "Oat, Wild plant response rating", "setting": "wild oat (Avena fatua); [15]", "result": 95}, {"measurement": "Oat, Wild plant response rating", "setting": "wild oat (Avena fatua); [16]", "result": 100}, {"measurement": "Plant response rating, Oat, Wild", "setting": "wild oat (Avena fatua); [17]", "result": 100}, {"measurement": "Plant response rating, Oat, Wild", "setting": "wild oat (Avena fatua); [18]", "result": 100}, {"measurement": "Plant response rating, Oat, Wild", "setting": "wild oat (Avena fatua); [24]", "result": 95}, {"measurement": "Plant response rating, Oat, Wild", "setting": "wild oat (Avena fatua); [19]", "result": 100}, {"measurement": "Oat, Wild plant response rating", "setting": "wild oat (Avena fatua); [20]", "result": 90}, {"measurement": "Oat, Wild plant response rating", "setting": "wild oat (Avena fatua); [21]", "result": 95}, {"measurement": "Plant response rating, Sunflower", "setting": "[10]; [13]", "result": 0}, {"measurement": "Plant response rating, Sunflower", "setting": "[10]; [14]", "result": 0}, {"measurement": "Sunflower plant response rating", "setting": "[10]; 8 g ai/ha", "result": 0}, {"measurement": "Sunflower plant response rating", "setting": "[10]; 16 g ai/ha", "result": 0}, {"measurement": "Plant response rating, Russian Thistle", "setting": "[11]; [13]", "result": 0}, {"measurement": "Plant response rating, Russian Thistle", "setting": "[11]; [14]", "result": 0}, {"measurement": "Russian Thistle plant response rating", "setting": "[11]; 8 g ai/ha", "result": 0}, {"measurement": "Russian Thistle plant response rating", "setting": "[11]; 16 g ai/ha", "result": 0}, {"measurement": "Surinam Grass plant response rating", "setting": "[12]; [15]", "result": 95}, {"measurement": "Surinam Grass plant response rating", "setting": "[12]; [16]", "result": 98}, {"measurement": "Plant response rating, Surinam Grass", "setting": "[12]; [17]", "result": 100}, {"measurement": "Plant response rating, Surinam Grass", "setting": "[12]; [18]", "result": 100}, {"measurement": "Plant response rating, Surinam Grass", "setting": "[12]; [24]", "result": 98}, {"measurement": "Plant response rating, Surinam Grass", "setting": "[12]; [19]", "result": 98}, {"measurement": "Surinam Grass plant response rating", "setting": "[12]; [20]", "result": 0}, {"measurement": "Surinam Grass plant response rating", "setting": "[12]; [21]", "result": 80}]}
